Experimental data: ChEMBL document CHEMBL1687743, “Intravenous doripenem at 500 milligrams versus levofloxacin at 250 milligrams, with an option to switch to oral therapy, for treatment of complicated lower urinary tract infection and pyelonephritis” (Antimicrob Agents Chemother, 2009)
Converted amounts (≈) assume the structure as drawn.

Tests used:
[1] = tested on: Homo sapiens; test: Treatment emergent adverse event in intent-to-treat patient with complicated urinary tract infection assessed as urinary tract infection at 500 […], iv administered every 8 hrs for 10 days; format: ADME, organism-based, Urine; set-up: route intravenous; conditions: in vivo
[2] = tested on: Homo sapiens; test: Treatment emergent adverse event in intent-to-treat patient with complicated urinary tract infection assessed as upper abdominal pain at 500 […], iv administered every 8 hrs for 10 days; format: organism-based; set-up: route intravenous; conditions: in vivo
[3] = tested on: Homo sapiens; test: Treatment emergent adverse event in intent-to-treat patient with complicated urinary tract infection assessed as back pain at 500 […], iv administered every 8 hrs for 10 days; format: organism-based; set-up: route intravenous; conditions: in vivo
[4] = tested on: Homo sapiens; test: Drug related treatment emergent adverse event in intent-to-treat patient with complicated urinary tract infection assessed as nausea at 500 […], iv administered every 8 hrs for 10 days; format: toxicity, organism-based; set-up: dose 500 […], route intravenous; conditions: in vivo
[5] = tested on: Escherichia coli; test: Antibacterial activity against levofloxacin-resistant Escherichia coli infected in microbiologically evaluable patient with UTI assessed as cure rate at 500 mg, iv administered every 8 hrs for 10 days measured at test-of-cure visit; format: functional
[6] = tested on: Homo sapiens; test: Treatment emergent adverse event in intent-to-treat patient with complicated urinary tract infection assessed as >=1 adverse event at 500 mg/kg, iv administered every 8 hrs for 10 days; format: organism-based, Urine; set-up: dose 500 mg/kg, route intravenous; conditions: in vivo
[7] = tested on: Escherichia coli; test: Antibacterial activity against levofloxacin-resistant Escherichia coli infected in clinically evaluable patient with UTI assessed as cure rate at 500 mg, iv administered every 8 hrs for 10 days measured at test-of-cure visit; format: functional
[8] = tested on: Homo sapiens; test: Treatment emergent adverse event in intent-to-treat patient with complicated urinary tract infection assessed as diarrhea at 500 […], iv administered every 8 hrs for 10 days; format: ADME, organism-based; set-up: route intravenous; conditions: in vivo
[9] = tested on: Klebsiella pneumoniae; test: Antibacterial activity against Klebsiella pneumoniae infected in microbiologically evaluable patient with UTI assessed as cure rate at 500 mg, iv administered every 8 hrs for 10 days measured at test-of-cure visit; format: functional
[10] = tested on: Homo sapiens; test: Treatment emergent adverse event in intent-to-treat patient with complicated urinary tract infection assessed as nausea at 500 […], iv administered every 8 hrs for 10 days; format: organism-based; set-up: route intravenous; conditions: in vivo
[11] = tested on: Homo sapiens; test: Treatment emergent adverse event in intent-to-treat patient with complicated urinary tract infection assessed as insomnia at 500 […], iv administered every 8 hrs for 10 days; format: ADME, organism-based, Urine; set-up: route intravenous; conditions: in vivo
[12] = tested on: Escherichia coli; test: Antibacterial activity against Escherichia coli isolated from patient with urinary tract infection receiving drug at 500 mg, iv administered every 8 hrs for 10 days measured after post drug therapy; format: functional; conditions: Urine
[13] = tested on: Homo sapiens; test: Drug related treatment emergent adverse event in intent-to-treat patient with complicated urinary tract infection assessed as phlebitis at 500 […], iv administered every 8 hrs for 10 days; format: toxicity, organism-based, Urine; set-up: dose 500 […], route intravenous; conditions: in vivo
[14] = tested on: Homo sapiens; test: Drug related treatment emergent adverse event in intent-to-treat patient with complicated urinary tract infection assessed as upper abdominal pain at 500 […], iv administered every 8 hrs for 10 days; format: toxicity, organism-based; set-up: dose 500 […], route intravenous; conditions: in vivo
[15] = tested on: Enterococcus faecalis; test: Antibacterial activity against Enterococcus faecalis; format: functional
[16] = tested on: Homo sapiens; test: Drug related treatment emergent adverse event in intent-to-treat patient with complicated urinary tract infection assessed as diarrhea at 500 […], iv administered every 8 hrs for 10 days; format: toxicity, organism-based; set-up: dose 500 […], route intravenous; conditions: in vivo
[17] = tested on: Homo sapiens; test: Treatment emergent adverse event in intent-to-treat patient with complicated urinary tract infection assessed as headache at 500 […], iv administered every 8 hrs for 10 days; format: ADME, organism-based, Urine; set-up: route intravenous; conditions: in vivo
[18] = tested on: Homo sapiens; test: Treatment emergent adverse event in intent-to-treat patient with complicated urinary tract infection assessed as hypokalemia at 500 […], iv administered every 8 hrs for 10 days; format: ADME, organism-based, Urine; set-up: route intravenous; conditions: in vivo
[19] = tested on: Enterococcus faecium; test: Antibacterial activity against Enterococcus faecium; format: functional
[20] = tested on: Homo sapiens; test: Treatment emergent adverse event in intent-to-treat patient with complicated urinary tract infection assessed as asymptomatic bacteriuria at 500 […], iv administered every 8 hrs for 10 days; format: ADME, organism-based, Urine; set-up: route intravenous; conditions: in vivo
[21] = tested on: Homo sapiens; test: Treatment emergent adverse event in intent-to-treat patient with complicated urinary tract infection assessed as phlebitis at 500 […], iv administered every 8 hrs for 10 days; format: organism-based; set-up: route intravenous; conditions: in vivo
[22] = tested on: Homo sapiens; test: Treatment emergent adverse event in intent-to-treat patient with complicated urinary tract infection assessed as abdominal pain at 500 […], iv administered every 8 hrs for 10 days; format: ADME, organism-based, Urine; set-up: route intravenous; conditions: in vivo
[23] = tested on: Homo sapiens; test: Treatment emergent adverse event in intent-to-treat patient with complicated urinary tract infection assessed as vomiting at 500 […], iv administered every 8 hrs for 10 days; format: organism-based; set-up: route intravenous; conditions: in vivo
[24] = tested on: Homo sapiens; test: Treatment emergent adverse event in intent-to-treat patient with complicated urinary tract infection assessed as constipation at 500 […], iv administered every 8 hrs for 10 days; format: ADME, organism-based; set-up: route intravenous; conditions: in vivo
[25] = tested on: Staphylococcus aureus; test: Antibacterial activity against Staphylococcus aureus; format: functional
[26] = tested on: Proteus mirabilis; test: Antibacterial activity against Proteus mirabilis infected in microbiologically evaluable patient with UTI assessed as cure rate at 500 mg, iv administered every 8 hrs for 10 days measured at test-of-cure visit; format: functional
[27] = tested on: Homo sapiens; test: Drug related treatment emergent adverse event in intent-to-treat patient with complicated urinary tract infection assessed as >=1 adverse event at 500 mg/kg, iv administered every 8 hrs for 10 days; format: toxicity, organism-based, Urine; set-up: dose 500 mg/kg, route intravenous; conditions: in vivo
[28] = tested on: Enterococcus avium; test: Antibacterial activity against doripenem-resistant Enterococcus avium; format: functional
[29] = tested on: Serratia marcescens; test: Antibacterial activity against Serratia marcescens isolated from patient with urinary tract infection receiving drug at 500 mg, iv administered every 8 hrs for 10 days measured after post drug therapy; format: functional; conditions: Urine
[30] = tested on: Escherichia coli; test: Antibacterial activity against Escherichia coli infected in microbiologically evaluable patient with UTI assessed as cure rate at 500 mg, iv administered every 8 hrs for 10 days measured at test-of-cure visit; format: functional
[31] = tested on: Homo sapiens; test: Drug related treatment emergent adverse event in intent-to-treat patient with complicated urinary tract infection assessed as headache at 500 […], iv administered every 8 hrs for 10 days; format: toxicity, organism-based, Urine; set-up: dose 500 […], route intravenous; conditions: in vivo

C[C@@H](O)[C@H]1C(=O)N2C(C(=O)O)=C(S[C@@H]3CN[C@H](CNS(N)(=O)=O)C3)[C@H](C)[C@H]12 [DORIPENEM]
Activity [1]: 3.7% | Activity [2]: 4.5% | Activity [3]: 2.1% | Activity [4]: 2.9% | Activity [5]: 55% | Activity [6]: 64% | Activity [7]: 86% | Activity [8]: 5.6% | Activity [9]: 83.3% | Activity [10]: 4.3% | Activity [11]: 3.7% | MIC [12]: 0.06 µg/mL (≈ 0.143 µM) | Activity [13]: 2.4% | Activity [14]: 0.5% | MIC [15]: ≥ 16 µg/mL | Activity [16]: 4% | Activity [17]: 15.7% | Activity [18]: 2.1% | MIC [19]: ≥ 16 µg/mL | Activity [20]: 3.7% | Activity [21]: 3.7% | Activity [22]: 1.9% | Activity [23]: 5.1% | Activity [24]: 5.9% | MIC [25]: ≥ 16 µg/mL | Activity [26]: 69.6% | Activity [27]: 28.2% | MIC [28]: 128 µg/mL (≈ 304 µM) | MIC [29]: 0.5 µg/mL (≈ 1.19 µM) | Activity [30]: 84.4% | Activity [31]: 4.5%
